Laboratory results: patent US20150045313A1, “Ectoparasiticidal Methods and Formulations” (Eli Lilly and Company, priority 2009, published 2015)
Like-named read-outs stand apart in the source and are kept apart here.

What was measured:
Cat Flea = assay: Flea Contact Assay (FCA); conditions: Cat Flea
Description: Flea Contact Assay (FCA)/Cat Flea: Test material is formulated in acetone at the desired exposure concentration and doubling dilutions performed to obtain a total of 10 testing levels. Approximately 0.05 ml of formulated material is dispensed into the bottom of a test tube containing a small amount of dog hair. Acetone is allowed to evaporate under a fume hood overnight. Approximately 10 mixed-sex adult cat flea are anesthetized using carbon dioxide and dispensed into each tube. Tubes are sealed using a ventilated plastic cap and incubated at 27° C. and 75-80% relative humidity. […] Nonlinear regression is used to model dose-mortality relationship and obtain relative potency (LD50) data compared to contemporaneous controls (acetone-only or fipronil).

[1] = test system: Horn Fly (Haematobia irritans); assay: Cattle Ectoparasiticide Test, pour-on or spray against horn flies; format: in vivo; conditions: cattle, Initial
Excerpt: Cattle Ectoparasiticide Test (CET)/Horn Fly (Haematobia irritans) and/or Adult Tick (Amblyomma americanum): Cattle are housed in environmentally controlled rooms, 1 or 2 animals per room that have screened doors and ventilation system to prevent fly escape. Following treatment application, a defined number of horn flies are released into each room (typically at or above economic threshold of 200 flies per animal). After defined periods of time, the numbers of live horn flies remaining on animals are enumerated. If a combination horn fly and tick experiment is conducted, adult lone star ticks are placed into surgical stockinette enclosures that are glued onto the backs of cattle. Cattle are restrained in a modified head gate within environmentally controlled rooms. Horn flies may be enumerated, followed by determination of the numbers of dead ticks inside of containment units. Typically there are 2 containment units per animal and at least 2 animals per treatment group.
B) Therapeutic and residual efficacy testing of spinetoram and Elector against horn flies when applied topically to cattle as a pour-on or topical spray. Spinetoram (120 g/L), Elector (25 g/L spinosad) as described previously were used. Test material was applied to animals as either a whole-body topical spray or neat pour-on. Spinetoram was diluted in water to 25 g/L prior to application as a pour-on. Both materials were diluted in water to 0.04% (400 ppm) for application as a whole-body spray in a total volume of 1 L per animal. There were a total of six animals per treatment group (n=6) plus six negative control animals. Beef and dairy cattle were used. Following treatments, horn flies were released into rooms harboring cattle. Live flies were enumerated 24 h following challenges.

Lone Star Tick = assay: Larval Packet Test (LPT); conditions: Lone Star Tick larvae, 24 h
Description: Larval Packet Test (LPT)/Ticks: Test material is formulated in a 2:1 ratio of trichloroethylene: olive oil. Tissue biopsy bags are saturated with 1 ml of formulated material (n=3 per test level), and bags are allowed to dry under a fume hood for at least 2 hours. Approximately 50-100 larval-stage ticks are placed into each bag, and the bag is sealed using a plastic dialysis clip and incubated for 24 h at 27° C. and 95% relative humidity. Bags are then opened, and live/dead ticks are enumerated. Nonlinear regression is used to model dose-mortality relationship and obtain relative potency (LD50) data compared to contemporaneous controls (solvent-only or fipronil).

Boophilus annulatus = assay: Whole-body spray treatment of Boophilus annulatus infestations on cattle; format: in vivo; parameters: residual efficacy, mean percentage control of the IF, Week 3 / residual efficacy, mean percentage control of the IF, Week 4: concentration or dose not given beside the values; residual efficacy, mean percentage control of the IF, Week 2: tested at 0.025% (250 ppm)
Description: C) Efficacy Testing and comparison of topically applied spinetoram with spinosad for the treatment of Boophilus annulatus infestations on cattle. Technical spinetoram and technical spinosad both formulated as 25 g/L suspension concentrate formulations similar to commercial Elector. Stability assays (HPLC and LPT bioassays) were conducted to confirm potency over extended periods of time (5 weeks) at cool and shelf-temperatures. Cattle were pre-infested 21 d prior to treatment with larval-stage B. annulatus ticks resulting the presence of very high numbers of all three life-stages of this tick at the time of treatment. Test materials were diluted to 0.025% (250 ppm) and applied to cattle as whole-body topical sprays in a volume of 10 L per animal. There were a total of six animals per treatment group (n=6). Animals were housed in covered stalls under ambient conditions of temperature and humidity. Engorged, detached adult female ticks were retrieved from animals in each stall on a daily basis. Egg masses were weighed and eggs were set for hatching to assess viability. Efficacy was measured in terms of total numbers of female ticks per animal and index of fecundity (IF).
Means were tested by General Linear Model (GLM), 1-way ANOVA. Differences (P<0.05) among means were separated using Tukey's all pairwise comparison. Means within the same column followed by different letters were significant at the P<0.05 level.
Means were tested by General Linear Model (GLM), 2-way ANOVA with parasitic life stage and treatment group as main effects. NS denotes not significant.

House Fly = assay: Adult House Fly Assay (AhsF); parameters: species or system Musca domestica; conditions: 24 h, read-out: Potency (24 h EC50 μM)
Description: Adult Stable or House Fly Assay (ASF, AhsF). This assay is conducted essentially as described in White, W. H., S. M. Bauer, X. Zhao et al., Comparison of in vitro and in vivo ectoparasiticide activity of an experimental benzimidazole-carbamate with permethrin and amitraz, J. Med. Entomol. 42, 207-211 (2005); and White, W. H., C. M. McCoy, J. A. Meyer et al., Knockdown and mortality comparisons among spinosad-, imidacloprid-, and methomyl-containing baits against susceptible Musca domestica (Diptera: Muscidae) under laboratory conditions, J. Econ. Entomol. 100, 155-163 (2007).
Test material is formulated in DMSO at 10 mM. Doubling dilutions in like solvent are made to yield 10 testing levels. Materials are diluted in either bovine serum (stable flies) or 5% glucose solution (house flies) to obtain desired exposure concentrations from 200-0.39 μM. Approximately 3 ml of diluted test material is placed into a test tube (n=3 per test level) and a dental wick is used to absorb fluid. One dental wick is placed into a small weigh boat inside of a 100 mm Petri dish. Approximately 10 mixed-sex adult flies are anesthetized using carbon dioxide and counted into each dish. Dishes are incubated at 27° C. and 50-70% relative humidity. Flies recover from anesthesia and feed on compound-soaked dental wicks. After 24 h, live/dead flies are enumerated. Nonlinear regression is used to model dose-mortality relationship and obtain relative potency (LD50) data compared to contemporaneous controls (solvent-only or permethrin).

[2] = cattle, 0.025% AI whole-body spray, mean ± SD

O=[N+]([O-])NC1=NCCN1Cc1ccc(Cl)nc1 [Imidacloprid, imidacloprid]
Potency (EC50 ng/cm^2) 24 h (Cat Flea): 11.59 ng/cm^2 | Potency (EC50 ng/cm^2) 48 h (Cat Flea): 7.737 ng/cm^2

CC1(C)C(C=C(Cl)Cl)C1C(=O)OCc1cccc(Oc2ccccc2)c1 (stereo not drawn) [Permethrin, permethrin]
Potency (EC50 ng/cm^2) 24 h (Cat Flea): 63.30 ng/cm^2 | Potency (EC50 ng/cm^2) 48 h (Cat Flea): 0.1580 ng/cm^2

spinosad
GM percent horn fly reduction after 24 hrs, Pour-on ([1]; pour-on 2 mg/kg): 99.9% | GM percent horn fly reduction after 24 hrs, Spray ([1]; whole-body spray 0.04% AI): 100% | Potency (EC50) (Lone Star Tick): 189.6 ppm | initial/knockdown activity against B. annulatus (Boophilus annulatus; cattle, 0.025% AI): poor | Number ♀♀ Ticks per Calf (Boophilus annulatus; [2]): 2423 ± 311 a | Total Index of Fecundity (IF) (Boophilus annulatus; [2]): 289 ± 40.1 a | Percentage Control of the IF (Boophilus annulatus; cattle, 0.025% AI whole-body spray, therapeutic efficacy): 27.6 ± 10.0 a % | Percentage control, Adult (Boophilus annulatus; parasitic life stage adult, 0.025% AI): 18.5 ± 13.0% | Percentage control, Larval (Boophilus annulatus; parasitic life stage larva, 0.025% AI): 33.1 ± 16.6% | Percentage control, Nymph (Boophilus annulatus; parasitic life stage nymph, 0.025% AI): 32.9 ± 10.8% | residual efficacy, mean percentage control of the IF, Week 1 (Boophilus annulatus; ticks infested as larvae Week 1 after treatment): 97.6 ± 2.1% | residual efficacy, mean percentage control of the IF, Week 2 (Boophilus annulatus; ticks infested as larvae Week 2 after treatment): 98.5 ± 1.2% | residual efficacy, mean percentage control of the IF, Week 3 (Boophilus annulatus; ticks infested as larvae Week 3 after treatment): 89.4 ± 6.2% | residual efficacy, mean percentage control of the IF, Week 4 (Boophilus annulatus; ticks infested as larvae Week 4 after treatment): 89.7 ± 4.8% | EC50 (House Fly; House Fly): 12 µM | Potency (EC50 ng/cm^2) 24 h (Cat Flea): 3.084 ng/cm^2 | Potency (EC50 ng/cm^2) 48 h (Cat Flea): 1.500 ng/cm^2

N#Cc1nn(-c2c(Cl)cc(C(F)(F)F)cc2Cl)c(N)c1[S+]([O-])C(F)(F)F (stereo not drawn) [Fipronil, fipronil]
EC50 (House Fly; Musca domestica): 0.97 µM | Potency (EC50 ng/cm^2) 24 h (Cat Flea): 43.56 ng/cm^2 | Potency (EC50 ng/cm^2) 48 h (Cat Flea): 22.18 ng/cm^2
